# Results reported in patent publication US12115147B2, “Formulations and methods related to eye irritation” (Lebrun Labs LLC, priority 2020, dated 2024).
# Where two headings read alike, the source gives them in different places.
# Tests used:
# [1] = OPTISAFE in vitro ocular irritation test, original formulation without antioxidants; details: for OPTISAFE Score AVG: original formulation without antioxidants; for OPTISAFE Score AVG / OPTISAFE (no antioxidant) Score AVG: triplicate assays; for OPTISAFE (no antioxidant) Score AVG: ROS/CL chemicals
# Experimental: Surfactants were diluted.
# Next a study was conducted to determine if the addition of antioxidants changes the reliability (repeatability) of the test method. After this, a large study determined if antioxidants specifically reduce the false positive rate without impacting the true positive rate and the true negative rate and then all prior test chemicals were rested with antioxidants in triplicate.
# [2] = pH 6.36
# [3] = OS2 (OPTISAFE2), OPTISAFE formulation with antioxidants; details: for OS2 Cons: majority prediction of the triplicate assays; for OS2 R1 / 0S2 R1: repeat 1, with antioxidants; for OS2 R1 / OS2 R3 / 0S2 R1: predicted GHS class; for OS2 R3: repeat 3, with antioxidants
# [4] = no antioxidants, predicted GHS class, cited from earlier work
# [5] = system: rabbit eye; details: cited from earlier work; for In vivo GHS: based on the Draize data
# [6] = system: reconstituted human corneal epithelium; experiment: Modified EPIOCULAR test with or without ascorbic acid overlay, MTT viability
# Experimental: To include the antioxidant mixture in cell-based assays, the mix can be added to the medium or the test sample. Per the EPIOCULAR protocol by MatTek Corporation, the EpiOcular Assay Medium should be warmed to approximately 37° C. […] The standard operating procedures are listed as follows:
# Tissue Preincubation • 1) RhCE tissues (purchased from MatTek Corporation) are equilibrated for about 15 min. • 2) The antioxidant is added to the Assay Medium and used for all steps that follow and/or the antioxidant is added to the test chemical or overlayed over the tissue prior to test chemical exposure. […] The tissues were then incubated at standard culture conditions for 30±2 min. • 3) Antioxidant procedure: The test article used was Styrene (CASRN 100-42-5, Lot No. MKCM4502). […] Modifications Required for Solids • 1) Each solid is tested by applying one leveled volumetric spoonful of material to be tested into tissue insert (approximately 50 mg). and incubated for 6 hours. • 2) Rinsing: At the end of the 6 hours, the test articles are removed by rinsing (as above). • 3) Post-treatment: After rinsing, the tissue inserts are immersed in 5 mL of previously warmed Assay Medium • 4) Recovery: Next, each insert is removed from the Assay Medium, and transferred to a plate containing 1 mL of Medium. The tissues are then incubated for 18 hours under cell culture. Cell Viability Test • 1) After the post-treatment incubation, the MTT viability test is done. • 2) A 1.0 mg/mL MTT solution is prepared and 300 μL of the MTT solution is added to each well of a 24-well plate. each insert is removed from the 6-well plate and placed into the 24-well plate containing 0.3 mL of MTT solution. The plate is then incubated for 3 hours under culture conditions. • 3) After incubation, each insert is removed from the 24-well plate and then transferred to a 24-well plate containing 2.0 mL of isopropanol. […] Alternative Visual Determination of Viability and Irritant Prediction • 1) Since viable cells turn MTT purple, the relative viability of one tissue to the next can be determined by a visual inspection. […]
# [7] = Table 7B, consensus of past application domain study
# [8] = Table 7A, consensus of past transferability study
compound,measurement,setting,value
CC(C)Br [iso-Propyl bromide],OPTISAFE prediction without the antioxidant mixture,[1],overpredicted
CCCCCCCCCCCC [Dodecane],OPTISAFE Score AVG,[1],0.9 ± 0.8
same,OS2 Score AVG,[2],3.0 ± 2.6
c1ccc(OP(Oc2ccccc2)Oc2ccccc2)cc1 [Triphenyl phosphite],OPTISAFE Score AVG,[1],113.3 ± 2.1
same,OS2 Cons,[3]; Table 7B,1
same,OS2 R1,[3]; Table 7B,1
same,OS2 R3,[3]; Table 7B,1
same,OS2 Score AVG,"[3]; new formulation with antioxidants at the in vivo concentration, triplicate assays",169.0 ± 9.9
same,OS Cons,[4]; [7],1
C=CCO [Allyl alcohol],OS2 Cons,[3]; Table 7B,1
same,OS2 R1,[3]; Table 7B,1
same,OS2 R3,[3]; Table 7B,1
same,In vivo GHS,[5]; Table 7B,2A (2A (reversal by 7 days))
same,OS Cons,[4]; [7],1
O=C1CCCO1 [gamma-Butyrolactone],OS2 Cons,[3]; Table 7B,2
same,OS2 R1,[3]; Table 7B,2
same,OS2 R3,[3]; Table 7B,2
same,In vivo GHS,[5]; Table 7B,2A (2A (reversal by 7 days))
same,OS Cons,[4]; [7],2
"O=C=Nc1ccc(Cl)c(Cl)c1 [3,4-Dichlorophenyl isocyanate]",OS2 Cons,[3]; Table 7A,1
same,0S2 R1,[3]; Table 7A,1
same,OS2 R3,[3]; Table 7A,1
same,In vivo GHS,[5]; Table 7A,1 (1 (no reversal by 21 days))
same,OS Cons,[4]; [8],1
CCOCCOCCO [2-(2-Ethoxyethoxy)ethanol],OPTISAFE (no antioxidant) Score AVG,[1],21.7 ± 0.3
same,OS Cons,[4]; [7],2
same,OS2 (with antioxidant) Score AVG,[2],12.0 ± 0.3
OCCOCCOCCO [Triethylene glycol],OPTISAFE (no antioxidant) Score AVG,[1],13.2 ± 3.5
same,OS Cons,[4]; [7],2
same,OS2 (with antioxidant) Score AVG,[2],5.1 ± 1.7
same,OS2 score average,[2],3.1
same,OS2 scores ranged from,[2],2.1-4.2
same,Score = Average score,[2],3.1
"C=CCCCCCCC=C [1,9-Decadiene]",OPTISAFE (no antioxidant) Score AVG,[1],22.5 ± 3.6
same,OS Cons,[4]; [8],2
same,OS2 (with antioxidant) Score AVG,[2],11.4 ± 6.4
"CCC(O)C(C)(C)C (centres unmarked) [2,2-Dimethyl-3-pentanol]",OPTISAFE prediction without the antioxidant mixture,[1],overpredicted
same,OPTISAFE Score AVG,[1],19.2 ± 1.2
same,OS Cons,[4]; [8],2
same,OS2 Score AVG,[2],15.1 ± 0.4
"CCN(CC)C(=O)c1cccc(C)c1 [n,n-Diethyl-m-toluamide]",OS2 Cons,[3]; Table 7B,1
same,OS2 R1,[3]; Table 7B,1
same,OS2 R3,[3]; Table 7B,1
same,In vivo GHS,[5]; Table 7B,2B (2B (reversal by 14 days))
same,known ocular irritancy (FIG. 4 legend),"[5]; rabbit, in vivo",Irritants
same,OS Cons,[4]; [7],2
CCOC(=O)C(C)C(C)=O (centres unmarked) [Ethyl-2-methyl acetoacetate],OS2 Cons,[3]; Table 7B,1
same,OS2 R1,[3]; Table 7B,1
same,OS2 R3,[3]; Table 7B,1
same,In vivo GHS,[5]; Table 7B,2B (2B (reversal by 14 days))
same,OS Cons,[4]; [7],1
C=Cc1ccccc1 [Styrene],"prediction, Condition 2",[6]; ascorbic acid (0.3 mg/ml) in PBS overlay and culture medium,nonirritant (TN)
same,"cell killing, Condition 2","[6]; ascorbic acid (0.3 mg/ml) in PBS overlay and culture medium, MTT, visual",significantly less cell killing
same,"cell killing, Condition 1","[6]; no ascorbic acid added, 50 μL, 30 min exposure, MTT, visual",extensive cell killing
same,OPTISAFE (no antioxidant) Score AVG,[1],53.5 ± 10.1
same,OS2 (with antioxidant) Score AVG,[2],3.5 ± 0.8
CCOC(C)=O [Ethyl acetate],OPTISAFE Score AVG,[1],23.9 ± 2.0
same,OS2 Cons,[2],2
same,OS2 R1,[2],2
same,OS2 R3,[2],2
same,OS2 Score AVG,[2],25.6 ± 2.4
CCOCCOCC [Ethylene glycol diethyl ether],OPTISAFE (no antioxidant) Score AVG,[1],25.4 ± 1.8
same,OS Cons,[4]; [7],2
same,OS2 (with antioxidant) Score AVG,[2],21.6 ± 2.5
same,OS2 Cons,[2],2
same,OS2 R1,[2],2
same,OS2 R3,[2],2
"CC(O)CC(C)O (centres unmarked) [2,4-Pentanediol]",OPTISAFE Score AVG,[1],12.0 ± 1.4
same,OS2 Score AVG,[2],10.2 ± 0.7
same,OS2 score average,[2],9.5
same,OS2 scores ranged from,[2],7.8-10.9
same,Score = Average score,[2],9.5
C=C(C)C(=O)OCCOCC [2-Ethoxyethyl methacrylate],OPTISAFE (no antioxidant) Score AVG,[1],97.1 ± 18.2
same,OS Cons,[4]; [7],1
same,OS2 (with antioxidant) Score AVG,[2],14.5 ± 2.7
same,OS2 Cons,[2],2
same,OS2 R1,[2],2
Diethylaminopropionitrile,OS2 Cons,[3]; Table 7B,1
same,OS2 R1,[3]; Table 7B,2
same,OS2 R3,[3]; Table 7B,1
same,In vivo GHS,[5]; Table 7B,1 (1 (no reversal by 21 days))
same,OS Cons,[4]; [7],CNM
CC(C)=O [Acetone],OS2 Cons,[3]; Table 7B,2
same,OS2 R1,[3]; Table 7B,2
same,OS2 R3,[3]; Table 7B,2
same,In vivo GHS,[5]; Table 7B,2A (2A (reversal by 7 days))
same,OS Cons,[4]; [7],2
CCCCC(CC)COC(=O)CS (centres unmarked),OPTISAFE prediction without the antioxidant mixture,[1],overpredicted
"O=C(Cl)c1c(Cl)cccc1Cl [2,6-Dichlorobenzoyl chloride]",In vivo GHS,[5]; Table 7B,2A (2A (reversal by 7 days))
same,OS Cons,[4]; [7],1
same,OS2 Cons,[2],1
same,OS2 R1,[2],1
same,OS2 R3,[2],1
CCCOCC(C)O (centres unmarked) [Propasol solvent P],OS2 Cons,[3]; Table 7A,2
same,0S2 R1,[3]; Table 7A,2
same,OS2 R3,[3]; Table 7A,2
same,In vivo GHS,[5]; Table 7A,2A (2A (reversal by 7 days))
same,OS Cons,[4]; [8],2
